In assay [1] the test system is dihydrotestosterone content in human prostate cell LNcap. Nature of the assay: Test of banana flower extract to inhibit dihydrotestosterone (DHT ELISA in testosterone-treated LNcap cells). Format: cell-based. The settings on record: testosterone 2 h, blank group 32.8 pg/mL. The method, then:
A significant increase in the production of dihydrotestosterone (DHT) in hair follicles of the forehead can be observed in young bald female patients. If the dihydrotestosterone can be inhibited, the effect of caring hair follicles and promoting hair growth is achieved. In this test, whether the content of the dihydrotestosterone in human prostate cells treated with different concentrations of banana extract was reduced or not was measured, and a common therapeutic drug Propecia for alopecia androgenetica was used as control.
Cell line: Human prostate cell LNcap (purchased from BCRC; access number Cat. 60088), hereinafter referred to as LNcap cell.
Cell medium (human prostate cell LNcap cell medium): RPMI 1640 Medium (RPMI), powder (Gibco; Cat. 31800-022), 10% fetal bovine serum (FBS) (Gibco; Cat. 10437-028) and 1% Antibiotic-Antimycotic (AA) (Gibco; Cat. 15240-062).
Reagent: 1×DPBS (Gibco, Cat. 14200-075), trypsin (1× Trypsin-EDTA, purchased from Thermo, Cat. FNN0011), Propecia (also referred to as Finasteride, purchased from Sigma; Cat. F1293), Testosterone (purchased from Sigma; Cat. T1500), and cell lysis buffer (purchased from RIPA Lysis and Extraction Buffer (Thermo #89900).
Detection kits: dihydrotestosterone ELISA Reagent Detection Kits (USCN; CEA443Ge).
Firstly, LNcap cells were implanted into a 6-well cell culture plate in a density of 1×10^5 LNcap cells and cultured at 37° C. in a 5% carbon dioxide incubator for 24 h.
The cultured LNcap cells were divided into an experimental group A, an experimental group B, a control group and a blank group. […]
Next, a 200 μL 1× cell lysis buffer was added into the tube to lyse the LNcap cells. […] Finally, the dihydrotestosterone content in the LNcap cells was detected by using a dihydrotestosterone ELISA kit. […]
(§1) Here, whether two groups compared have a statistically significant difference or not is analyzed with a single-tailed student t-test to obtain their p-values. […]
(An ELISA detects its analyte on a solid surface through an enzyme-linked reagent.)

In assay [2] the test system is Human Follicle Dermal Papilla Cells (HFDPC). Nature of the assay: Hair follicle cell proliferation test (Click-iT EdU flow cytometry). It counts as cell-based.
Text: Hair follicle cells are the foundation of hair. In hair follicle cells at the growth phase, cells in hair follicle bulbs of the hair root can divide once a day. If the proliferation of the hair follicle cells is promoted, the effect of promoting hair growth can be achieved. In this test, the proliferation of human follicle dermal papilla cells treated with the compound I was examined.
Cell line: Human Follicle Dermal Papilla Cells (HFDPC) (purchased from PromoCell; Cat. C-12071), hereinafter referred to as HFDPC cells.
Detection kit: Cell proliferation ELISA reagent detection kit (Click-iT™ Plus EdU Flow Cytometry Assay Kits-Alexa Fluor™ 488 picolyl azide, 50 tests, brand Invitrogen, model C10632), containing composition C (Dimethyl sulfoxide DMSO), composition D (Click-iT™ fixative), composition E (Click-iT™ saponin-based permeabilization and wash reagent), composition F (Copper protectant), and composition G (Click-iT™ EdU buffer additive).
Firstly. […]
The supernatant was removed. […] Finally, a fluorescence signal was measured with a flow cytometer (excitation light: 488 nm; scattered light: 527 nm and 590 nm).
as §1

With `O=C(O)CC(O)(CC(=O)O)C(=O)NCCc1ccc(O)c(O)c1` [compound I, N-β-citroyldopamine], the results for the dihydrotestosterone content in assay [1] (5 μg/mL (experimental group B)) and in assay [1] (10 μg/mL (experimental group A)) were 25.20 pg/mL and 25.03 pg/mL, respectively. In addition, in assay [2] (10 μg/mL, Example 3, FIG. 2), the “number of the HFDPC cells (blank group = 100%)” value came out at 118.81%.

In assay [1] (20 μg/mL (control group)), `CC(C)(C)NC(=O)[C@H]1CC[C@H]2[C@@H]3CC[C@H]4NC(=O)C=C[C@]4(C)[C@H]3CC[C@]12C` [Propecia, Finasteride, reference compound] gave a dihydrotestosterone content of 17.16 pg/mL.

Consider `CC(=O)OCC1O[C@H](O[C@]2(CO)O[C@H](COC(C)=O)C(O)C2OC(=O)/C=C/c2ccc(O)cc2)C(OC(C)=O)C(OC(C)=O)[C@@H]1O` (stereo partly drawn) [compound II, 6,2′,3′,6′-O-tetraacetyl-3-O-trans-p-coumaroylsucrose], for which the “number of the HFDPC cells (blank group = 100%)” value in assay [2] (100 μM, Example 4, FIG. 3) turned out to be 112.54%.

Source of the values: patent publication US20240197809A1, “HAIR CARE COMPOSITION AND BANANA FLOWER EXTRACT AND METHOD FOR HAIR CARE USING THE SAME” (TCI CO., LTD., priority 2022, published 2024).
